From ChEMBL document CHEMBL1201862, “PubChem BioAssay data set” (2004)
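Each compound was tested at five concentrations against cells in 96-well plates for 48 hours. GI50: concentration for 50% inhibition of growth.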 Activity calls are given as the source filed them. Rule as the data show it: active = GI50 up to about 1.1 µM and inactive = higher.

Legend:
Test in all cases: growth of human tumour cells (NCI), 48 h
A549 = system: A549
BT-549 = system: BT-549
CAKI-1 = system: CAKI-1
COLO 205 = system: COLO 205
Hs-578T = system: Hs-578T
KM12 = system: KM12
MCF7 = system: MCF7
MDA-MB-435 = system: MDA-MB-435
NCI/ADR-RES = system: NCI/ADR-RES
OVCAR-4 = system: OVCAR-4
PC-3 = system: PC-3
SF-295 = system: SF-295
SK-MEL-5 = system: SK-MEL-5
SW-620 = system: SW-620
TK-10 = system: TK-10
UACC-62 = system: UACC-62
A498 = system: A498
HCC 2998 = system: HCC 2998
SR = system: SR

Measured: GI50

CC(C)=NN/C(=N\c1ccc(Cl)cc1)NS(=O)(=O)c1cc2ccccc2s1
inactive: A549 44 µM | BT-549 41.9 µM | CAKI-1 97.9 µM | COLO 205 46.5 µM | Hs-578T > 100 µM | KM12 90.4 µM | MCF7 53 µM | MDA-MB-435 36.7 µM | NCI/ADR-RES 51.1 µM | OVCAR-4 46.9 µM | PC-3 45.7 µM | SF-295 57.5 µM | SK-MEL-5 > 100 µM | SW-620 > 100 µM | TK-10 87.9 µM | UACC-62 > 100 µM

C(=N\N=C1NCCCN1)/c1ccc2ccccc2c1
inactive: A498 3.01 µM | A549 9.23 µM | BT-549 17.4 µM | COLO 205 5.93 µM | HCC 2998 2.64 µM | Hs-578T 16.9 µM | KM12 13.6 µM | MCF7 3.4 µM | MDA-MB-435 5.89 µM | NCI/ADR-RES 19.4 µM | OVCAR-4 19.3 µM | PC-3 10.3 µM | SF-295 11.4 µM | SK-MEL-5 3.47 µM | SW-620 12.4 µM | TK-10 18.6 µM | UACC-62 13.5 µM

C1=N\CCNCC/N=C\c2ccc(cc2)OCc2cccc(n2)COc2ccc/1cc2
inactive: A498 > 100 µM | A549 > 100 µM | BT-549 66.4 µM | CAKI-1 > 100 µM | COLO 205 > 100 µM | Hs-578T 23.5 µM | KM12 > 100 µM | MCF7 > 100 µM | MDA-MB-435 > 100 µM | NCI/ADR-RES 63.1 µM | OVCAR-4 97.3 µM | PC-3 78.2 µM | SF-295 24.7 µM | SK-MEL-5 65.8 µM | SR > 100 µM | SW-620 > 100 µM | UACC-62 > 100 µM

COc1ccc(N2C(=O)CC(C3CC(C(C)(C)C)CCC3=O)C2=O)cc1 (centres undefined)
inactive: A549 > 100 µM | BT-549 > 100 µM | CAKI-1 > 100 µM | COLO 205 > 100 µM | HCC 2998 > 100 µM | Hs-578T > 100 µM | KM12 > 100 µM | MCF7 > 100 µM | MDA-MB-435 > 100 µM | NCI/ADR-RES > 100 µM | OVCAR-4 > 100 µM | PC-3 > 100 µM | SK-MEL-5 > 100 µM | SR > 100 µM | SW-620 > 100 µM | TK-10 > 100 µM | UACC-62 > 100 µM

O=C(/C=C1\Nc2ccccc2N=C1NC12CC3CC(CC(C3)C1)C2)c1ccc(Br)cc1
inactive: A498 > 10 µM | A549 > 10 µM | BT-549 > 10 µM | CAKI-1 > 10 µM | COLO 205 > 10 µM | HCC 2998 > 10 µM | Hs-578T > 10 µM | KM12 > 10 µM | MCF7 > 10 µM | MDA-MB-435 > 10 µM | NCI/ADR-RES > 10 µM | OVCAR-4 > 10 µM | PC-3 > 10 µM | SF-295 > 10 µM | SK-MEL-5 > 10 µM | SW-620 > 10 µM | TK-10 > 10 µM | UACC-62 > 10 µM

COc1ccc(Cn2c(=O)c(OS(=O)(=O)C(F)(F)F)c(C)c3cc4ccccc4cc32)cc1
inactive: A549 > 100 µM | BT-549 > 100 µM | CAKI-1 > 100 µM | COLO 205 > 100 µM | HCC 2998 > 100 µM | Hs-578T > 100 µM | KM12 > 100 µM | MCF7 > 100 µM | MDA-MB-435 > 100 µM | NCI/ADR-RES > 100 µM | OVCAR-4 88.7 µM | PC-3 > 100 µM | SF-295 > 100 µM | SK-MEL-5 > 100 µM | SR > 100 µM | SW-620 > 100 µM | TK-10 > 100 µM | UACC-62 > 100 µM

CCCC/C=C/C/C=C/CCCCCCCCC(=O)OCC1CCCN2CCCCC12 (centres undefined)
inactive: A498 > 100 µM | A549 > 100 µM | BT-549 15.6 µM | CAKI-1 31 µM | COLO 205 93.3 µM | HCC 2998 > 100 µM | Hs-578T > 100 µM | KM12 > 100 µM | MCF7 > 100 µM | MDA-MB-435 > 100 µM | NCI/ADR-RES > 100 µM | OVCAR-4 79.8 µM | PC-3 > 100 µM | SF-295 > 100 µM | SK-MEL-5 > 100 µM | SW-620 > 100 µM | TK-10 > 100 µM | UACC-62 48.6 µM

Nc1ncnc2c1ncn2C(=O)NC12CC3CC(CC(C3)C1)C2
inactive: A498 > 100 µM | A549 > 100 µM | BT-549 > 100 µM | CAKI-1 > 100 µM | COLO 205 > 100 µM | HCC 2998 > 100 µM | Hs-578T > 100 µM | KM12 > 100 µM | MCF7 > 100 µM | MDA-MB-435 > 100 µM | NCI/ADR-RES > 100 µM | OVCAR-4 > 100 µM | PC-3 > 100 µM | SF-295 > 100 µM | SK-MEL-5 > 100 µM | SW-620 > 100 µM | TK-10 > 100 µM | UACC-62 > 100 µM

O=C(O)C1Cc2ccccc2OC1=O (centres undefined)
inactive: A549 > 100 µM | BT-549 > 100 µM | CAKI-1 > 100 µM | COLO 205 > 100 µM | HCC 2998 > 100 µM | Hs-578T > 100 µM | KM12 > 100 µM | MCF7 > 100 µM | MDA-MB-435 > 100 µM | NCI/ADR-RES > 100 µM | PC-3 > 100 µM | SF-295 > 100 µM | SK-MEL-5 > 100 µM | SR > 100 µM | SW-620 > 100 µM | TK-10 > 100 µM | UACC-62 > 100 µM

O=C1Oc2ccccc2C(=O)/C1=C/N1C(=O)CNC1=S
inactive: A549 > 100 µM | BT-549 > 100 µM | CAKI-1 > 100 µM | COLO 205 > 100 µM | HCC 2998 > 100 µM | Hs-578T > 100 µM | KM12 > 100 µM | MCF7 > 100 µM | MDA-MB-435 > 100 µM | NCI/ADR-RES > 100 µM | OVCAR-4 > 100 µM | PC-3 > 100 µM | SF-295 > 100 µM | SK-MEL-5 > 100 µM | SW-620 > 100 µM | TK-10 > 100 µM | UACC-62 > 100 µM

Cc1ccc(/C=C2\CCCc3ccccc3C2=O)cc1
inactive: A549 5.86 µM | BT-549 10.1 µM | CAKI-1 27.2 µM | COLO 205 4.94 µM | Hs-578T 12.4 µM | KM12 4.11 µM | MCF7 18.3 µM | MDA-MB-435 2.6 µM | NCI/ADR-RES 8.67 µM | OVCAR-4 25.9 µM | PC-3 14.7 µM | SF-295 3.45 µM | SR 13.9 µM | SW-620 22.9 µM | TK-10 25.1 µM | UACC-62 9.51 µM
